Assay [1] has as its target T1, MdPh-4′-OGT (Malus domestica, UniProt A7MAS5).
T1 construct: made in house; host or cells: E. coli BL21 (DE3)
T1 sequence (A7MAS5 1-481): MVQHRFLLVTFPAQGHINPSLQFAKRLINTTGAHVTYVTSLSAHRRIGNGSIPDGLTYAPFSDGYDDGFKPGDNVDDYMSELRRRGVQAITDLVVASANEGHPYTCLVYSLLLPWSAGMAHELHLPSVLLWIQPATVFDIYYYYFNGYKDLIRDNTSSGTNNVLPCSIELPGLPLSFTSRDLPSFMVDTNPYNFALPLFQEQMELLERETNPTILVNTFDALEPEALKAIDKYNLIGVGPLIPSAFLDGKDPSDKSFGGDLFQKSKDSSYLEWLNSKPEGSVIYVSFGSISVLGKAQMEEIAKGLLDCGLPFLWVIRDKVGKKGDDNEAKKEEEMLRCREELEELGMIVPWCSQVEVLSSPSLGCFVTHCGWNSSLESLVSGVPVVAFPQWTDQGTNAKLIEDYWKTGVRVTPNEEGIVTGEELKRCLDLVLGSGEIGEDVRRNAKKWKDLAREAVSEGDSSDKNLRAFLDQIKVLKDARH
The assay is described as follows: Substrate specificity, sugar donor and cation dependence of purified recombinant MdPh-4′-OGT. The following applies: 50 μM substrate, 2 mM UDP-glucose, 500 ng enzyme, 1 hour, pH 7.5; LC-MS. The assay is classed as biochemical, Malus x domestica. As to the method: Substrates analyzed are indicated.
(§1) Reactions were performed at 30° C. for 60 minutes and terminated by addition of 10 μL of 10% TCA (v/v). Two microliters of the reaction products were used for analysis and identification by LC-UV-MS. All assay series were carried out at least in triplicate.
The analytical column was a Zorbax Extend-C18 Rapid Resolution HT column (2.1×50.0 mm, 1.8 μm, Agilent Technologies, Waldbronn, Germany). The gradient elution mobile phase consisted of H2O with 0.1% (v/v) formic acid (eluent A) and acetonitrile containing 0.1% (v/v) formic acid (eluent B). The column was equilibrated with 10% B for 1.5 minutes. […] The flow rate of the mobile phase was 0.3 ml/min and the column oven temperature was 40° C. Eluting compounds were subjected to a dual-sprayer orthogonal ESI source, with one sprayer for analytical flow and one for the reference compound (Agilent Technologies, Santa Clara, USA). The ESI source was operated in negative mode with the following settings: gas temp of 300° C. with a flow of 8 L/min and nebulizer set to 35 psig. VCap set to 3000 V, the fragmentor to −140 V and the skimmer to 65 V. Scan mode of the mass detector was applied (100-1700 m/z) with a rate of 1 spectra/sec. The [M-H] ions of target compounds were detected using the ‘find compound by formula’ function and analyzed by Masshunter qualitative and quantitative analysis software version B.07.00 (Agilent technologies). Compounds were identified by comparison of exact mass and retention time to purchased standards.

Assay [2] concerns the target T1, MdPh-4′-OGT. The assay is described as follows: Kinetic parameters of His-tag purified recombinant MdPh-4′-OGT (standard glucosyltransferase enzyme assay, LC-MS). The format is biochemical, Malus x domestica. As to the method:
as §1
The UPLC-MS analysis was carried out on an Agilent 1290 Infinity series liquid chromatograph coupled with an Agilent 1290 Infinity DAD and Agilent 6224 Accurate Mass Time of Flight mass spectrometer (MS) (Agilent Technologies, Santa Clara, USA). The analytical column was a Zorbax Extend-C18 Rapid Resolution HT column (2.1×50.0 mm, 1.8 μm, Agilent Technologies, Waldbronn, Germany). The gradient elution mobile phase consisted of H2O with 0.1% (v/v) formic acid (eluent A) and acetonitrile containing 0.1% (v/v) formic acid (eluent B). The column was equilibrated with 10% B for 1.5 minutes. Eluent B was then increased to 95% till 12 minutes, and restored to 10% by 15 minutes. The flow rate of the mobile phase was 0.3 ml/min and the column oven temperature was 40° C. Eluting compounds were subjected to a dual-sprayer orthogonal ESI source, with one sprayer for analytical flow and one for the reference compound (Agilent Technologies, Santa Clara, USA). The ESI source was operated in negative mode with the following settings: gas temp of 300° C. with a flow of 8 L/min and nebulizer set to 35 psig. VCap set to 3000 V, the fragmentor to −140 V and the skimmer to 65 V. Scan mode of the mass detector was applied (100-1700 m/z) with a rate of 1 spectra/sec. The [M-H] ions of target compounds were detected using the ‘find compound by formula’ function and analyzed by Masshunter qualitative and quantitative analysis software version B.07.00 (Agilent technologies). Compounds were identified by comparison of exact mass and retention time to purchased standards.

In assay [3] the test system is Malus Ph-2′-OGT. The assay is described as follows: Km for phloretin of Malus Ph-2′-OGT (literature) compared with MdPh-4′-OGT. The format is biochemical. The following applies: Gosch C. et al. (2010).
The target in assay [4] is MdPGT1 (Malus domestica, UniProt B3TKC8). The following applies: Jugde et al. (2008).
Assay [5] concerns the target T1, MdPh-4′-OGT. The assay is described as follows: pH and temperature optima of MdPh-4′-OGT activity with phloretin and UDP-glucose. The format is biochemical, Malus x domestica. As to the method: as §1
All data included represent an average of at least three independent experiments. Determination of the pH optima within the range of 4.0-10.0 by mixing the stock buffer of 0.5 M citric acid and 1 M dibasic sodium phosphate solutions (for pH 4.0-7.0) and Tris-HCl (for pH 8.0-10.0), and the temperature optima within the range of 20° C.-45° C.

As for `O=C(O)/C=C/c1ccc(O)cc1` [4-coumaric acid], the “Activity / product formation with the compound as acceptor substrate” value (“Activity / product formation” for short) in assay [1] is on record as “no products were detected”.

The kcat is the maximal rate divided by the concentration of active sites. As usually defined, the Km is the substrate concentration at which the rate is half of its maximum. `O=C(CCc1ccc(O)cc1)c1c(O)cc(O)cc1O` [Phloretin, 3-(4-hydroxyphenyl)-1-(2,4,6-trihydroxyphenyl)-1-propanone]: in assay [2] (named substrate varied, co-substrate fixed), the catalytic constant (kcat) is listed as 9.94 ± 1.23 s^−1 (×10^−2). Moreover, the Vmax in assay [2] (named substrate varied, co-substrate fixed, 500 ng enzyme) stood at 1.86 ± 0.30 pkat μg^−1 protein; in assay [2] (named substrate varied, co-substrate fixed, 500 ng enzyme, listed as phloretin), 1.86±0.30 pkat μg^−1 protein. Further, the Michaelis-Menten constant (Km) in assay [2] (named substrate varied: phloretin 0.5-500 μM at 2 mM UDP-glucose, UDP-glucose 0.01-50 mM at 30 μM phloretin, 500 ng enzyme) was found to be 26.1 ± 6.97 µM. The “Km for phloretin, times higher than with MdPh-4′-OGT” value in assay [3] was found to be 3 times. In addition, the “Km for phloretin, times lower than with MdPh-4′-OGT” value in assay [4] is listed as 41 times. Also, the “Activity / product formation” value in assay [1] was “highest activity”.

Regarding `O=C(/C=C/c1ccc(O)c(O)c1)c1ccc(O)cc1O` [butein], the “Activity / product formation” value in assay [1] is reported as “production of the corresponding O-glucoside”.

As to `O=C(O)/C=C/c1ccc(O)c(O)c1` [caffeic acid], the “Activity / product formation” value in assay [1] is “no products were detected”.

Take `O=C1C[C@@H](c2ccc(O)cc2)Oc2cc(O)cc(O)c21` [naringenin]: the “Activity / product formation” value in assay [1] is on record as “formation of the corresponding naringenin-7-O-glucoside”.

In the case of `O=c1c(O)c(-c2ccc(O)c(O)c2)oc2cc(O)cc(O)c12` [quercetin], the “Activity / product formation” value in assay [1] was “production of three different products”.

As for `O=C(CCc1ccc(O)cc1)c1c(O)cc(O[C@@H]2O[C@H](CO)[C@@H](O)[C@H](O)[C@H]2O)cc1O` [trilobatin, 1-Propanone, 1-(4-(beta-D-glucopyranosyloxy)-2,6-dihydroxyphenyl)-3-(4-hydroxyphenyl)], the “Activity / product formation” value in assay [1] is on record as “production of the corresponding di-O-glucosides”.

B1: MdPh-4′-OGT: His-tagged recombinant apple glycosyltransferase that glycosylates phloretin with UDP-glucose to form trilobatin (protein, listed as Malus domestica)
chain: T1 sequence (A7MAS5 1-481)
modifications: His tag
notes: His-tagged recombinant apple glycosyltransferase that glycosylates phloretin with UDP-glucose to form trilobatin
For B1, the Activation energy in assay [5] (calculated from temperature dependence) is 4.369 kcal/mol. Further, in assay [5] (pH 6.0), the “Activity remaining at pH 6.0” value was found to be 17%. Besides, in assay [5] (pH 10.0), the “Activity remaining at pH 10.0” value is “less than 5%”. In assay [5] (pH range 4.0-10.0 tested), the “pH of maximum activity” value worked out at 9.0 pH and the “pH range of significant activity” value is 7.0-9.0 pH.

(Values after patent US10767187B2 (The State of Israel, Ministry of Agriculture & Rural …, priority 2016, dated 2020).)
